Results from patent US12570599B2, “Process for preparing acyl-capped 3-hydroxycarboxylic acids and their salts and esters” (KetoLipix Therapeutics GmbH, priority 2019, dated 2026).

Tests used:
[1] = Cleavage experiments in FaSSGF medium simulating the stomach, with or without pancreatin (Panzytrat); format: in vitro ADME; settings: in the presence or absence of pancreatin
Excerpt: (§1) Esters tested: • 3-Acetylaceto-BHB ethyl ester • 3-Acetylaceto-BHB decyl ester • 3-Acetylaceto-BHB oleyl ester • 3-Acetylaceto-BHB cetyl ester • 3-Acetylaceto-BHB-margaryl ester • 3-Acetylaceto-BHB stearyl ester • 3-Acetylaceto-BHB behenyl ester • 3-Acetylaceto-BHB melissyl ester • 3-Acetylaceto-BHB palmitoyl ester • 3-Acetylaceto-BHB linoleyl ester For the cleavage experiments under near-body conditions two media are investigated: • FaSSGF, which simulates the stomach • FaSSIF, which simulates the intestinal tract Both media are from the company Biorelevant®, Ltd. in Great Britain. In addition, in some experiments porcine pancreas is added (Panzytrat® 40,000, Fa. Allergan).
(§2) Under FaSSIF conditions, a lower conversion using Panzytrat® takes place.

[2] = Cleavage experiments in FaSSIF medium simulating the intestinal tract, with or without pancreatin (Panzytrat); format: in vitro ADME; settings: in the presence or absence of pancreatin
Excerpt: as §1, §2

[3] = test system: pancreatin (Panzytrat 40,000); test: Cleavage experiments with pancreatin in water, followed by acid number; format: in vitro ADME, porcine; settings: each ester in its pure form, 50° C.
Experimental: 2 g of each of the 3-acetoacetate-BHB ethyl esters prepared as described above and the 3-acetoacetate-BHB fatty alcohol esters prepared as described above are dissolved in 50 g water and 0.5 g (1% by weight) pancreatin is added. The pancreatin is used in the form of the commercially available product Panzytrat® 40,000 from the Allergan company. The whole mixture is stirred on a hot plate at 50° C.; the course of the reaction is determined and monitored by continuously recording the acid number over time. […] This is confirmed by corresponding analytics. The experiment proves that both the 3-acetylaceto-BHB ethyl ester according to the invention and the functionalized derivatives (i. e. 3-acetylaceto-BHB fatty alcohol esters) are suitable physiological precursors for 3-hydroxybutyric acid for the corresponding keto body therapies. The experiments are repeated and verified using each ester in its pure form.

[4] = several grams taken, patients; cited from earlier work

cleavage in gastric medium [1]	cleavage in intestinal medium [2]	cleavage by pancreatin [3]	SMILES	duration of ketosis [4]
cleavage to 3-BHB in the free form	cleavage to 3-BHB in the free form	cleaved by pancreatin	CCOC(=O)CC(C)OC(=O)CC(C)=O (stereo not shown) [3-acetylaceto-BHB ethyl ester, 3-acetylacetobutyric acid ethyl ester]	
			CC(O)CC(=O)O (stereo not shown) [3-hydroxybutyric acid]	three to four
